Results taken from patent US20240199755A1, “ANTAGONISTS AND AGONISTS OF THE TRANSFERRIN RECEPTOR-2 FOR USE IN THE TREATMENT OF DISEASES OF THE BONE” (Kymab Limited, priority 2018, published 2024).

How the values were obtained:
[1] = tested on: bone mass of Tfr2-/- mice; assay: Anisomycin treatment of WT and Tfr2-/- mice; format: in vivo; conditions: 5 mg/kg anisomycin for 3 weeks
[2] = tested on: Sost mRNA expression in osteoblasts; assay: Sost mRNA expression (qPCR) in ex vivo differentiated osteoblasts after anisomycin; format: cell-based, mice; conditions: 100 nM anisomycin, 24 h
Experimental: Primary murine osteoblasts were differentiated from the bone marrow using standard osteogenic medium in DMEM with 10% FCS, 1% penicillin/streptomycin (Life Technologies, Germany). RNA was isolated at various time points and day 7 osteoblasts were used for immunofluorescence analysis of Tfr2 and for the deep sequencing analysis.
(§1) Signaling studies: day 7 differentiated cells were treated with 50 ng/ml BMP-2, BMP-4 or BMP-6 for 0, 20, and 40 min and lysed in protein lysis buffer (at least two independent experiments with 3 n each). Anisomycin was used to activate MAPK signaling on day 7 differentiated osteoblasts. Cells were treated with 100 nM anisomycin for 20 min for subsequent protein analysis. For RNA isolation and detection of gene expression, cells were treated with different doses of anisomycin for 24 h (two independent experiments with 3 n each).
RNA from cell cultures was isolated with the High Pure RNA Isolation Kit (Roche) and RNA from the bones of mice was isolated by crushing flushed bones (femur and tibia) in liquid nitrogen and collecting the bone powder in Trifast (Peqlab, Germany). Other organs were homogenized directly in Trifast using an ultraturrax (IKA, Germany). […] The results were calculated using the ΔΔCT method and are presented in x-fold increase relative to β-actin (or GAPDH where indicated) mRNA levels.

[3] = tested on: ERK (pERK) and p38 (pp38) signaling in osteoblasts; assay: Western blot of ERK and p38 activation in osteoblasts after anisomycin; format: cell-based, mice; conditions: 100 nM anisomycin for 20 min
Experimental: as §1
Cells were lysed in a buffer containing 20 mM Tris/HCl pH 7.4, 1% SDS, and a protease inhibitor (complete mini, Roche, Germany). To isolate protein from tissues, the protein fraction of the Trifast procedure was used and further processed according to the manufacturer's protocol. The protein concentration was determined using the BCA method (Pierce, Germany). Twenty μg of heatdenatured protein was loaded onto a 10% gel, separated, and transferred onto a 0.2 μm nitrocellulose membrane (Whatman, Germany). […]

[4] = biological target: T1, Tfr2-ECD (Mus musculus, UniProt Q9JKX3); assay: SPR binding of holo-Tf and BMP receptors to Tfr2-ECD immobilized on the sensor chip; parameters: species or system murine; conditions: increasing holo-Tf concentrations without intermediate regeneration
T1 construct: full-length extracellular domain (ECD, aa 103-798) of murine Tfr2; His (N); MBP (N); c3 (protease site between MBP and ECD) (N); made in house; host or cells: Sf9 insect cells (baculovirus, pOCC211-Tfr2-ECD)
T1 sequence (Q9JKX3 103-798): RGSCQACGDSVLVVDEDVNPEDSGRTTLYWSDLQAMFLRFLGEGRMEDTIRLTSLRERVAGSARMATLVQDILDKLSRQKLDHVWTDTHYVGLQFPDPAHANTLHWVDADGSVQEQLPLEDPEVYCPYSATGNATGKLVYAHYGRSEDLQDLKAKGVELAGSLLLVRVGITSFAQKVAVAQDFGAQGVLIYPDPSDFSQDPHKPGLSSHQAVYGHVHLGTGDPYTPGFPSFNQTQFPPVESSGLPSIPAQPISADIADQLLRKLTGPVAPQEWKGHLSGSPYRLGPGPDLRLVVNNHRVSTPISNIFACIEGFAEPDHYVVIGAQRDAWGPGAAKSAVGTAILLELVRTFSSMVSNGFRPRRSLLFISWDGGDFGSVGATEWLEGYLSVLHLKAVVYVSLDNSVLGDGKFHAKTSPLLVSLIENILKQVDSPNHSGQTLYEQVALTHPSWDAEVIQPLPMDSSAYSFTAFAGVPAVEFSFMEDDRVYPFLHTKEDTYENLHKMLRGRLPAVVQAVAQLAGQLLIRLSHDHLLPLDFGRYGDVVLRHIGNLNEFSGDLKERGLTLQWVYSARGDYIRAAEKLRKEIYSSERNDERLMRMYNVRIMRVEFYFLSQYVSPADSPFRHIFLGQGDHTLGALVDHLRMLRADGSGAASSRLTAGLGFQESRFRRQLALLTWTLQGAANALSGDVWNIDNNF
Experimental: For this purpose, Tfr2-ECD is immobilized on a Series S Sensor Chip C1 (GE Healthcare), by means of coupling the amino groups at 25° C. The carboxyl groups on the chip surface are activated for 7 minutes using a mixture of 196 mM 1-ethyl-3-(3-dimethylaminopropyl) carbodiimide-hydrochloride and 50 mM n-hydroxysuccinimide at a flow rate of 10 μl/min. Subsequently, 5 μg/ml Tfr2-ECD, diluted with sodium acetate buffer (pH 4.5), is injected at a flow rate of 5 μl/min up to a relative occupancy of 200 RU. Non-reacted groups are inactivated by injecting 1 M thanolamine-HCl (pH 8.5) for 7 minutes at a flow rate of 10 μl/min. In order to prepare a reference surface, the same procedure is carried out but without Tfr2-ECD being injected.
The binding assays are carried out at 37° C. at a flow rate of 30 μl/min. Each analyte is diluted by a running buffer (HBS-P, pH 7.4 together with 50 nM FeCl3). […] The values of the binding level are read out, relative to the baseline, 10 s before the end of the injection and are corrected with respect to the molar mass. […] The binding parameters are determined using the Biacore™ T100 evaluation software 2.03. […]
For binding analysis, an injection of analyte for 240 s or 300 s over a Tfr2-ECD surface was followed by 1000 s dissociation. The values of the binding levels were recorded from referenced signals 10 s before the end of injection relative to baseline response. […]

[5] = biological target: T2, BMP-2 binding to Tfr2-ECD (Homo sapiens, UniProt P12643); assay: SPR competition / sequential injection experiments on Tfr2-ECD surface; conditions: sequential injection of BMP-2 and holo-Tf
T2 construct: full-length extracellular domain (ECD, aa 103-798) of murine Tfr2; His (N); MBP (N); c3 (protease site between MBP and ECD) (N); host or cells: Sf9 insect cells (Tfr2-ECD)
T2 sequence (P12643 283-396): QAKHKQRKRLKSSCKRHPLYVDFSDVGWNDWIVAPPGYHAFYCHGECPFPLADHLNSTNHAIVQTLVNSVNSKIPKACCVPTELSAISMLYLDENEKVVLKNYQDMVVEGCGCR
Experimental: The binding analysis was performed at 37° C. at a flow rate of 30 μl/min. […] In some experiments, 500 mM NaCl were used to reduce potential non-specific binding. […] Concentration-dependent binding of holo-Tf was performed without intermediate regeneration.

Row | Kd value of holo-Tf binding to Tfr2 [4] | Competition with BMP-2 for binding to Tfr2 [5] | Compound | Osteoclast numbers (Oc.S/BS) [1] | Bone volume (BV/TV of the fourth lumbar vertebrae) ([1]; Tfr2-/- mice) | Osteoblast numbers (N.Ob/B.Pm) ([1]; Tfr2-/- mice) | Serum levels of sclerostin ([1]; Tfr2-/- mice) | Increase of Sost mRNA expression ([2]; Tfr2 osteoblasts) [fold] | Increase of Sost mRNA expression ([2]; WT osteoblasts) [fold] | ERK and p38 phosphorylation [3]
1 | – | – | COc1ccc(C[C@H]2NC[C@H](O)[C@H]2OC(C)=O)cc1 [anisomycin] | not altered | decreased bone volume back to WT levels | reduced | increased | 19 | 14 | induced ERK and p38 phosphorylation
2 | micromolar range | did not compete | Holo-Tf: holo-transferrin, the only known Tfr2 ligand | – | – | – | – | – | – | –
